In US10550107B2, “Process for the preparation of N-[4-[(3-chloro-4-fluoro phenyl) amino]-7-[[(3s-tetrahydro-3-furanyl]oxy]-6-quinazolinyl]-4-(dimethyl amino)-(2E)-2-butenamide (2Z)-2-butenedioate (1:2) and its polymorphs thereof” (MSN LABORATORIES PRIVATE LIMITED, priority 2015, dated 2020):

Assay: Polymorphic stability of crystalline Form-R
Assay type: physicochemical
Conditions: at various conditions (not specified)

CN(C)C/C=C/C(=O)Nc1cc2c(Nc3ccc(F)c(Cl)c3)ncnc2cc1O[C@H]1CCOC1.O=C(O)/C=C\C(=O)O [Form-R, N-[4-[(3-chloro-4-fluorophenyl)amino]-7-[[(3S)-tetrahydro-3-furanyl]oxy]-6-quinazolinyl]-4-(dimethylamino)-(2E)-2-butenamide (2Z)-2-butenedioate (1:2)]
stability of the crystalline form / conversion to other crystalline forms: stable at various conditions and does not convert to any of the other crystalline forms
